Test results reported in ChEMBL document CHEMBL1201862, “PubChem BioAssay data set” (2004).
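Exposure lasted 48 hours, with cells grown in 96-well plates and compounds tested at five concentrations. GI50 = concentration required for 50% inhibition of growth.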 Active and inactive are the calls of the source. Rule as the data show it: active = GI50 up to about 1.1 µM and inactive = higher. Non-standard residues stand in square brackets, D forms with d. Residues, ends and D or L forms follow the SMILES beside them. Ava = NCCCCC(=O)O; Mpa = O=C(O)CCS

What was measured:
Assay in all cases: NCI-60 cell line screen, 48 h
[1] = tested on: SNB-19
[2] = tested on: CCRF-CEM
[3] = tested on: SK-MEL-5
[4] = tested on: SK-OV-3
[5] = tested on: EKVX
[6] = tested on: UO-31
[7] = tested on: CAKI-1
[8] = tested on: HCC 2998
[9] = tested on: MOLT-4
[10] = tested on: HOP-62
[11] = tested on: OVCAR-5
[12] = tested on: COLO 205
[13] = tested on: Malme-3M
[14] = tested on: UACC-62
[15] = tested on: LOX IMVI
[16] = tested on: NCI-H460
[17] = tested on: SF-295
[18] = tested on: A549
[19] = tested on: KM12
[20] = tested on: SK-MEL-2

Measured: GI50

CCOC(=O)CNC(SC)=C(C#N)C#N
inactive: [1] > 100 µM | [2] > 100 µM | [3] > 100 µM | [4] > 100 µM | [5] > 100 µM | [6] 36.7 µM | [7] > 100 µM | [8] > 100 µM | [9] > 100 µM | [10] > 100 µM | [11] > 100 µM | [12] > 100 µM | [13] > 100 µM | [14] > 100 µM | [15] > 100 µM | [16] > 100 µM | [17] > 100 µM | [18] > 100 µM | [19] > 100 µM

CC(NC(=O)CCS)C(=O)NC(C)C(=O)NC(Cc1c[nH]c2ccccc12)C(=O)NC(Cc1c[nH]cn1)C(=O)NC(CO)C(=O)NC(Cc1c[nH]c2ccccc12)C(=O)NCCCCC(=O)NC(C)C(=O)NC(CCC(N)=O)C(=O)NC(CCCCN)C(=O)NC(C)C(=O)NC(CCCNC(=N)N)C(=O)NC(CCCCN)C(N)=O (stereo not drawn) ([Mpa]AAWHSW[Ava]AQKARK-NH2; configuration not given here)
inactive: [1] > 100 µM | [2] 79.4 µM | [3] 35.6 µM | [4] > 100 µM | [5] > 100 µM | [6] > 100 µM | [7] 44.2 µM | [9] > 100 µM | [10] > 100 µM | [20] > 100 µM | [11] > 100 µM | [12] 43.5 µM | [13] 19 µM | [14] 22.5 µM | [15] > 100 µM | [16] 37.2 µM | [17] > 100 µM | [18] > 100 µM | [19] 26.2 µM

COc1cc(O)cc2oc(-c3ccc(O)cc3)cc(=O)c12
inactive: [1] > 100 µM | [2] > 100 µM | [3] > 100 µM | [4] > 100 µM | [5] > 100 µM | [6] 55 µM | [7] 64.3 µM | [9] > 100 µM | [10] 74.6 µM | [20] 52.8 µM | [11] > 100 µM | [12] > 100 µM | [13] 76.6 µM | [14] 83.9 µM | [15] > 100 µM | [16] 67.5 µM | [17] 36.2 µM | [18] > 100 µM | [19] > 100 µM

C[C@@H]1[C@@H](c2ccccc2)O[B-](c2ccccc2)(c2ccccc2)[N+]1(C)C
inactive: [1] > 100 µM | [2] 61.4 µM | [3] 27.5 µM | [4] > 100 µM | [5] > 100 µM | [6] 22.7 µM | [7] 48.3 µM | [9] > 100 µM | [10] > 100 µM | [20] > 100 µM | [11] > 100 µM | [12] 33 µM | [13] 78 µM | [14] > 100 µM | [15] > 100 µM | [16] > 100 µM | [17] > 100 µM | [18] > 100 µM | [19] > 100 µM

O=C(NCCN1CCCCC1)c1cccc(I)c1
inactive: [1] > 100 µM | [2] > 100 µM | [3] > 100 µM | [4] > 100 µM | [5] > 100 µM | [6] > 100 µM | [7] > 100 µM | [8] > 100 µM | [9] > 100 µM | [11] > 100 µM | [14] > 100 µM | [15] > 100 µM | [16] > 100 µM | [18] > 100 µM | [19] > 100 µM

CCOC(=O)CCC(C(=O)OCC)n1nc2ccc(Nc3c(C)[n+]([O-])c4cc(Cl)ccc4[n+]3[O-])cc2n1 (stereo not drawn)
inactive: [1] > 100 µM | [2] 49.3 µM | [3] 75 µM | [4] > 100 µM | [5] 32.2 µM | [6] 81.8 µM | [7] 61.7 µM | [9] 32.3 µM | [10] > 100 µM | [20] 96.2 µM | [11] > 100 µM | [12] 75.7 µM | [13] > 100 µM | [14] 66.1 µM | [15] 58.3 µM | [16] 24.3 µM | [17] 82.4 µM | [18] > 100 µM | [19] > 100 µM

CNC1c2ccccc2C(=O)c2cc3c(cc21)OCCOCCOCCOCCO3 (stereo not drawn)
inactive: [1] > 100 µM | [2] 17.1 µM | [3] > 100 µM | [4] > 100 µM | [5] > 100 µM | [6] > 100 µM | [8] > 100 µM | [9] 28.1 µM | [10] > 100 µM | [11] > 100 µM | [12] > 100 µM | [16] > 100 µM | [17] > 100 µM | [18] > 100 µM | [19] > 100 µM

O=C1c2ccccc2N2OC3(N4CCCC4)CCCCC3C12c1ccccc1 (stereo not drawn)
inactive: [1] > 100 µM | [2] 18.7 µM | [3] 15.1 µM | [4] > 100 µM | [5] 69.8 µM | [6] 39.7 µM | [8] 53 µM | [9] 35.7 µM | [10] > 100 µM | [12] 17.3 µM | [13] 18.8 µM | [14] 16.4 µM | [17] 18.3 µM | [18] 21 µM

CCOC(=O)Cc1nc2c(N)ncnc2n1C1OC(COC(C)=O)C(OC(C)=O)C1OC(C)=O (stereo not drawn)
inactive: [1] > 100 µM | [2] > 100 µM | [3] > 100 µM | [4] > 100 µM | [5] > 100 µM | [6] > 100 µM | [7] > 100 µM | [8] > 100 µM | [9] > 100 µM | [10] > 100 µM | [12] > 100 µM | [13] > 100 µM | [14] > 100 µM | [15] > 100 µM | [16] > 100 µM | [17] > 100 µM | [18] > 100 µM | [19] > 100 µM

CC(=O)N/N=C1/CC[C@@]2(C)C(=CC[C@H]3C4CCC(C(C)CCCC(C)C)[C@@]4(C)CCC32)C1(C)C (stereo partly drawn)
inactive: [1] 75.3 µM | [2] 13.8 µM | [3] 37.4 µM | [4] > 100 µM | [5] > 100 µM | [6] 82 µM | [7] > 100 µM | [9] 11 µM | [10] > 100 µM | [20] 58.3 µM | [11] > 100 µM | [12] 32.9 µM | [13] > 100 µM | [14] > 100 µM | [15] 3.94 µM | [16] 32.1 µM | [17] 22.3 µM | [18] 31.1 µM | [19] 46.3 µM

CCOC(=O)C1CCCN1C(=O)c1ccccc1Cl (stereo not drawn)
inactive: [1] > 100 µM | [2] > 100 µM | [3] > 100 µM | [5] > 100 µM | [6] > 100 µM | [7] > 100 µM | [8] > 100 µM | [9] > 100 µM | [10] > 100 µM | [11] > 100 µM | [13] > 100 µM | [14] 22 µM | [15] > 100 µM | [16] > 100 µM | [17] > 100 µM | [18] > 100 µM | [19] > 100 µM
